Laboratory results from ChEMBL document CHEMBL1201862, “PubChem BioAssay data set” (2004).
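Each compound was tested at five concentrations against cells in 96-well plates for 48 hours. GI50 is the concentration that inhibits growth by half.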 Active and inactive are the calls of the source. No stated cut-off is given here; in the data, active = GI50 up to about 1.1 µM and inactive = higher. Where a SMILES comes first, the peptide text is derived from it. [ ]: non-standard residue; d: D form. The star is where a group is joined. Cbz = O=C(OCc1ccccc1)*; Aib = CC(C)(N)C(=O)O

What was measured:
Test in all cases: NCI anticancer screen, dose series, 48 h
CCRF-CEM = test system: CCRF-CEM
K562 = test system: K562
IGROV-1 = test system: IGROV-1
UO-31 = test system: UO-31
NCI-H226 = test system: NCI-H226
UACC-62 = test system: UACC-62
HOP-62 = test system: HOP-62
MOLT-4 = test system: MOLT-4
M14 = test system: M14
CAKI-1 = test system: CAKI-1
SF-539 = test system: SF-539
NCI-H23 = test system: NCI-H23
SK-MEL-5 = test system: SK-MEL-5
PC-3 = test system: PC-3
OVCAR-8 = test system: OVCAR-8
HCC 2998 = test system: HCC 2998
COLO 205 = test system: COLO 205
786-0 = test system: 786-0
LOX IMVI = test system: LOX IMVI

Measured: GI50

Cc1ccc(NC(=O)C23CC4CC(CC(C4)C2)C3)c(C(=O)NNC(=O)c2ccc(Cl)cc2)c1
active: IGROV-1 < 0.01 µM
inactive: CCRF-CEM 21.1 µM | K562 28.6 µM | UO-31 16.5 µM | NCI-H226 17 µM | UACC-62 19.5 µM | HOP-62 18.4 µM | MOLT-4 21.5 µM | M14 31.8 µM | CAKI-1 23.3 µM | SF-539 18.1 µM | NCI-H23 12.9 µM | SK-MEL-5 18.4 µM | PC-3 23.3 µM | OVCAR-8 30.2 µM | HCC 2998 12.9 µM | COLO 205 27.2 µM | 786-0 20.2 µM | LOX IMVI 17 µM

CC(C)(NC(=O)C(C)(C)NC(=O)OCc1ccccc1)C(=O)O (Cbz-[Aib]-[Aib]-OH)
inactive: CCRF-CEM > 100 µM | K562 > 100 µM | IGROV-1 > 100 µM | UO-31 > 100 µM | NCI-H226 > 100 µM | UACC-62 > 100 µM | HOP-62 > 100 µM | MOLT-4 > 100 µM | M14 > 100 µM | CAKI-1 > 100 µM | SF-539 > 100 µM | NCI-H23 > 100 µM | SK-MEL-5 > 100 µM | PC-3 > 100 µM | OVCAR-8 > 100 µM | HCC 2998 > 100 µM | COLO 205 > 10 µM | 786-0 > 100 µM | LOX IMVI > 100 µM

CCN(CC)CCOCCOCC1(c2ccc(Cl)c(Cl)c2)CCCCC1
inactive: CCRF-CEM 2.99 µM | K562 2.82 µM | IGROV-1 8.43 µM | UO-31 5.12 µM | NCI-H226 17.9 µM | UACC-62 8.87 µM | HOP-62 7.67 µM | MOLT-4 4.99 µM | M14 1.7 µM | CAKI-1 10.1 µM | SF-539 11.2 µM | NCI-H23 11 µM | SK-MEL-5 2.19 µM | PC-3 11.2 µM | OVCAR-8 13.8 µM | HCC 2998 4.07 µM | COLO 205 4.41 µM | 786-0 3.28 µM | LOX IMVI 7.08 µM

CN(CCCN(C)CCc1ccc(Cl)c(Cl)c1)CCCN1CCCC1
inactive: IGROV-1 3.11 µM | UO-31 1.23 µM | NCI-H226 2.56 µM | UACC-62 1.93 µM | HOP-62 2.86 µM | M14 1.52 µM | CAKI-1 2.37 µM | SF-539 2.88 µM | NCI-H23 3.31 µM | SK-MEL-5 2.32 µM | PC-3 3.35 µM | OVCAR-8 2.82 µM | COLO 205 2.28 µM | 786-0 1.26 µM | LOX IMVI 1.52 µM
active: CCRF-CEM 0.458 µM | K562 0.532 µM | MOLT-4 0.908 µM | HCC 2998 0.305 µM

NC(=S)N1N=C(c2ccccc2O)CC1c1ccccc1 (configuration not stated)
inactive: CCRF-CEM 7.94 µM | K562 3.85 µM | IGROV-1 11.4 µM | UO-31 19.3 µM | NCI-H226 15 µM | UACC-62 11.6 µM | HOP-62 4.95 µM | MOLT-4 8.04 µM | M14 11.3 µM | CAKI-1 27.9 µM | SF-539 11.8 µM | NCI-H23 18.5 µM | SK-MEL-5 10.2 µM | PC-3 5.24 µM | OVCAR-8 25.5 µM | HCC 2998 11.6 µM | COLO 205 8.97 µM | 786-0 21.1 µM | LOX IMVI 16.9 µM

C(=N\c1ccc(-c2nc3ccccc3s2)cc1)/c1cccs1
active: CCRF-CEM 0.617 µM
inactive: K562 34.8 µM | IGROV-1 49.8 µM | UO-31 43.9 µM | NCI-H226 54.2 µM | UACC-62 42 µM | HOP-62 30.3 µM | MOLT-4 27 µM | M14 69 µM | CAKI-1 38.5 µM | SF-539 59.3 µM | NCI-H23 54.3 µM | SK-MEL-5 30.4 µM | PC-3 38.1 µM | OVCAR-8 49.2 µM | HCC 2998 34 µM | COLO 205 42.1 µM | 786-0 48.2 µM | LOX IMVI 46.1 µM

S=C1SC(c2ccc(Cl)cc2)(c2ccc(Cl)cc2)c2ccccc21
inactive: CCRF-CEM 43.7 µM | K562 64.9 µM | IGROV-1 > 100 µM | UO-31 > 100 µM | NCI-H226 51.2 µM | UACC-62 > 100 µM | HOP-62 > 100 µM | MOLT-4 37.2 µM | M14 79.4 µM | CAKI-1 53.8 µM | SF-539 > 100 µM | NCI-H23 71 µM | SK-MEL-5 64 µM | PC-3 58.6 µM | OVCAR-8 > 100 µM | HCC 2998 59.8 µM | COLO 205 80.5 µM | 786-0 > 100 µM | LOX IMVI 25.7 µM

CNC(=O)N(CCC#N)[C@H]1CCCC[C@@H]1N(C(=O)NC)c1ccccc1
inactive: CCRF-CEM > 100 µM | K562 > 100 µM | IGROV-1 > 100 µM | UO-31 > 100 µM | NCI-H226 > 100 µM | UACC-62 > 100 µM | HOP-62 > 100 µM | MOLT-4 > 100 µM | M14 > 100 µM | CAKI-1 > 100 µM | SF-539 > 100 µM | NCI-H23 > 100 µM | SK-MEL-5 > 100 µM | PC-3 > 100 µM | OVCAR-8 > 100 µM | HCC 2998 > 100 µM | COLO 205 > 100 µM | 786-0 > 100 µM | LOX IMVI > 100 µM

Cc1cc(S(=O)(=O)Nc2nnc3c(C(F)(F)F)cc(Cl)cn23)c(S)cc1Cl
inactive: CCRF-CEM > 100 µM | K562 > 100 µM | IGROV-1 > 100 µM | UO-31 33 µM | NCI-H226 > 100 µM | UACC-62 41.5 µM | HOP-62 > 100 µM | MOLT-4 74 µM | M14 67.1 µM | CAKI-1 56.6 µM | SF-539 > 100 µM | SK-MEL-5 > 100 µM | PC-3 > 100 µM | OVCAR-8 > 100 µM | HCC 2998 > 100 µM | COLO 205 > 100 µM | 786-0 > 100 µM | LOX IMVI > 100 µM

CC(=O)CC1(OC(=O)C2C(C=C(C)C)C2(C)C)C(=O)Nc2ccccc21 (configuration not stated)
inactive: CCRF-CEM 55.3 µM | K562 77.3 µM | IGROV-1 > 100 µM | UO-31 > 100 µM | NCI-H226 > 100 µM | UACC-62 > 100 µM | HOP-62 > 100 µM | MOLT-4 > 100 µM | M14 > 100 µM | CAKI-1 > 100 µM | SF-539 > 100 µM | NCI-H23 > 100 µM | SK-MEL-5 > 100 µM | PC-3 37.6 µM | OVCAR-8 > 100 µM | HCC 2998 > 100 µM | COLO 205 > 100 µM | 786-0 > 100 µM | LOX IMVI > 100 µM

CCOC(=O)c1sc2nc(SC)nc3c2c1NCN3c1ccc2c(c1)OCCCO2
inactive: CCRF-CEM > 100 µM | K562 > 100 µM | IGROV-1 > 100 µM | UO-31 37.9 µM | NCI-H226 3.53 µM | UACC-62 > 100 µM | HOP-62 27.9 µM | MOLT-4 > 100 µM | M14 38.2 µM | CAKI-1 > 100 µM | SF-539 13.9 µM | NCI-H23 70.8 µM | SK-MEL-5 12.2 µM | PC-3 > 100 µM | OVCAR-8 7.46 µM | HCC 2998 26.3 µM | 786-0 6.31 µM | LOX IMVI > 100 µM
